Results: article PMC10633873 (ACS Omega, 2023)
Starred links: 1 amine or outer side, 2 acyl side, 3 side chain; linkers in the order of their positions; H or OH if unused. Positions of bridges follow the written chain, without caps; N, C: chain ends. Non-standard residues stand in square brackets, D forms with d. Residues, ends and D or L forms follow the SMILES beside them. Chains are numbered I, II in the order given. Actinocin(9to1) = Cc1c2oc3c(C)ccc(C(=O)[*:1])c3nc-2c(C(=O)[*:2])c(N)c1=O; NMeV = CN[C@H](C(=O)O)C(C)C; Sar = CNCC(=O)O

Tests used:
[1] = biological target: T1, HEV-RdRp (Hepatitis E virus genotype 1, UniProt P33424); assay: HEV-RdRp enzyme activity; assay type: biochemical
T1 sequence (P33424 1207-1693 limits assumed): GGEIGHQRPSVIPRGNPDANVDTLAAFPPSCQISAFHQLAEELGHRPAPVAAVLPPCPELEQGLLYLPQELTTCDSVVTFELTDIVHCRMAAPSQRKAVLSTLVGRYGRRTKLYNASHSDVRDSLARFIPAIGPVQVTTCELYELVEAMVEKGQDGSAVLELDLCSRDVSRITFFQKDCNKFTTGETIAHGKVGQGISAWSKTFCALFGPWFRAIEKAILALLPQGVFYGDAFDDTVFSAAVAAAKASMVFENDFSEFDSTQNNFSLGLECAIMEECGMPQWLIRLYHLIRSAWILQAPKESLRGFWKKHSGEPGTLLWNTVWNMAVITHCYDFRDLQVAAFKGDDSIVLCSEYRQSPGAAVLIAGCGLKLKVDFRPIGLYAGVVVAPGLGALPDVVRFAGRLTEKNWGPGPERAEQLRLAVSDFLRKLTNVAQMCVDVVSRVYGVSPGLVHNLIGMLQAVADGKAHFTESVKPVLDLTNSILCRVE

[2] = system: HEV; assay: Immunofluorescence assay of ORF2 expression in HEV RNA-transfected Huh7 cells; assay type: cell-based, Hepatitis E virus; settings: Huh7, anti-HEV-ORF2, 4–5 days after transfection
[3] = Cell viability by MTT assay; assay type: cell-based; settings: human, Huh7 cells
[4] = system: HEV; assay: Effect on viral replication; assay type: cell-based, Hepatitis E virus; settings: concentration and assay not stated
[5] = system: HEV genotype 3 (pSHEV-3); assay: Viral RNA copy number by qPCR in Huh7 cells transfected with full-length HEV RNA; assay type: cell-based, Hepatitis E virus; settings: 5 days post transfection, vs untreated cells

SMILES | CC50 at 72 h [3] [µM] | IC50 [1] [µM] | effect on polymerase activity of HEV-RdRp [1] | also measured
Nc1nc2c(ncn2[C@@H]2O[C@H](COP(=O)(O)OP(=O)(O)OP(=O)(O)O)[C@@H](O)[C@H]2O)c(=O)[nH]1 [GTP] | – | – | – | Km ([1]; GTP varied 0 to 8 mM, 5 μM enzyme, poly(C) 1 μg, Michaelis–Menten fit): 400 µM
Cc1c2oc3c(C)ccc(C(=O)N[C@@H]4C(=O)N[C@H](C(C)C)C(=O)N5CCC[C@H]5C(=O)N(C)CC(=O)N(C)[C@@H](C(C)C)C(=O)O[C@@H]4C)c3nc-2c(C(=O)N[C@@H]2C(=O)N[C@H](C(C)C)C(=O)N3CCC[C@H]3C(=O)N(C)CC(=O)N(C)[C@@H](C(C)C)C(=O)O[C@@H]2C)c(N)c1=O [actinomycin-D] (I: T[dV]P[Sar][NMeV] / II: T[dV]P[Sar][NMeV]; ester I:1-I:C, II:1-II:C; linker I:N-II:N via Actinocin(9to1)) | – | – | – | effect on enzyme activity of RdRp ([1]; 5 μM actinomycin-D added to the reaction mixture): no significant effect
NC(=O)c1nc(F)c[nH]c1=O [favipiravir] | < 500 | 10.2 ± 4.9 | reduced the polymerase activity | effect on HEV replication (ORF2 mean fluorescence intensity) [2]: significantly inhibited HEV replication
CCc1cc(CC[C@]2(C3CCCC3)CC(O)=C(Cc3nc4nc(C)cc(C)n4n3)C(=O)O2)cc(CC)n1 [filibuvir] | – | – | reduced the polymerase activity | –
Nc1ccn([C@@H]2CS[C@H](CO)O2)c(=O)n1 [lamivudine] | – | – | – | effect on viral replication [4]: did not show any effect; effect on in vitro enzyme activity of HEV-RdRp ([1]; concentration not given): inhibited
CCC(CC)COC(=O)[C@H](C)N[P@](=O)(OC[C@H]1O[C@@](C#N)(c2ccc3c(N)ncnn23)[C@H](O)[C@@H]1O)Oc1ccccc1 [remdesivir] | – | – | did not show any effect | –
NC(=O)c1ncn([C@@H]2O[C@H](CO)[C@@H](O)[C@H]2O)n1 [ribavirin] | < 100 | 3.5 ± 1.6 | reduced the polymerase activity | % reduction of viral RNA ([5]; 100 μM): ∼72%
CC(C)OC(=O)[C@H](C)N[P@](=O)(OC[C@H]1O[C@@H](n2ccc(=O)[nH]c2=O)[C@](C)(F)[C@@H]1O)Oc1ccccc1 [sofosbuvir] | < 125 | 5.2 ± 2.9 | reduced the polymerase activity | % reduction of viral RNA ([5]; 125 μM): ∼68%
